Reference: article doi:10.1101/382226v2 (biorxiv, 2019)

Assays:
NOX4 = molecular target: T1, NOX4 (Homo sapiens, UniProt Q9NPH5); assay: Amplex Red/HRP H2O2 fluorescence, intact transfected HEK293 cells; type: cell-based
T1 sequence (Q9NPH5 1-578): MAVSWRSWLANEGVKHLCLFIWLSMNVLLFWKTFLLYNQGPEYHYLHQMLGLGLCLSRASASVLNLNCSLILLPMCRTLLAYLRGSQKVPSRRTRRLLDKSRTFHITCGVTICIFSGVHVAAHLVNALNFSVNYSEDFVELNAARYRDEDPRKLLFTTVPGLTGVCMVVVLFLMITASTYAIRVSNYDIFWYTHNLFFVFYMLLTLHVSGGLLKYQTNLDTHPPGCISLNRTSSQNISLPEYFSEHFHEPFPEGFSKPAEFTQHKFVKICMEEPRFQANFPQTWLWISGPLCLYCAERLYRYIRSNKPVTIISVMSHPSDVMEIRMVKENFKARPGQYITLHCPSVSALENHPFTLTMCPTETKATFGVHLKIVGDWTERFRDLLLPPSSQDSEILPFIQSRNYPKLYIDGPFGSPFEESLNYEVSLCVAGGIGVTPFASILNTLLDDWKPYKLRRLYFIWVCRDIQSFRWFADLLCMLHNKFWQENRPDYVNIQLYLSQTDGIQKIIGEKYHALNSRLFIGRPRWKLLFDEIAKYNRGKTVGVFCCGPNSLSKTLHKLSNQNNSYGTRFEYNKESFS
T1 sequence (P13498 2-195 partner): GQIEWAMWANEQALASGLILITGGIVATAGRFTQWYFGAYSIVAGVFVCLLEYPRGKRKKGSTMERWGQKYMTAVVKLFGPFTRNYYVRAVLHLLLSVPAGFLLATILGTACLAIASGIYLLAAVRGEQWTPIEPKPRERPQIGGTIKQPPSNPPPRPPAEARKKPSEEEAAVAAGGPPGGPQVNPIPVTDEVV

NOX1 = NOX1 (Homo sapiens, UniProt Q9Y5S8); assay: luminol/HRP chemiluminescence, intact transfected HEK293 cells; type: cell-based
NOX1, sequence (Q9Y5S8 whole entry, one chain of several): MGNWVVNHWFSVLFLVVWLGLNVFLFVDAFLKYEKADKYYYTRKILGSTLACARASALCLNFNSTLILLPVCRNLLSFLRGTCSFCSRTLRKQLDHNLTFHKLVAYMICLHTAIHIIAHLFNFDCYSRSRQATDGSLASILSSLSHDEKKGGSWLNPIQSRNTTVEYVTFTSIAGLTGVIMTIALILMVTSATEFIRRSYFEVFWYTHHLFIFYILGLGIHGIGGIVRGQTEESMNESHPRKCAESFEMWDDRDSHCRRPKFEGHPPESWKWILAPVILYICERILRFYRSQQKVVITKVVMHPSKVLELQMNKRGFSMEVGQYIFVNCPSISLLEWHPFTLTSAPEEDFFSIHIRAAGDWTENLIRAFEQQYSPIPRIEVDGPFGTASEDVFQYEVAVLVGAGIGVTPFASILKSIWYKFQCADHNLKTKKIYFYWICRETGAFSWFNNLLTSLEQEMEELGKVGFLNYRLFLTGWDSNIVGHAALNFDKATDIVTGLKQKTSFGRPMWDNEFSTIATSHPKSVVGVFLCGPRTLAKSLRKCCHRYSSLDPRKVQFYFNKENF
NOX1, sequence (Q8NFA2 whole entry partner, one chain of several): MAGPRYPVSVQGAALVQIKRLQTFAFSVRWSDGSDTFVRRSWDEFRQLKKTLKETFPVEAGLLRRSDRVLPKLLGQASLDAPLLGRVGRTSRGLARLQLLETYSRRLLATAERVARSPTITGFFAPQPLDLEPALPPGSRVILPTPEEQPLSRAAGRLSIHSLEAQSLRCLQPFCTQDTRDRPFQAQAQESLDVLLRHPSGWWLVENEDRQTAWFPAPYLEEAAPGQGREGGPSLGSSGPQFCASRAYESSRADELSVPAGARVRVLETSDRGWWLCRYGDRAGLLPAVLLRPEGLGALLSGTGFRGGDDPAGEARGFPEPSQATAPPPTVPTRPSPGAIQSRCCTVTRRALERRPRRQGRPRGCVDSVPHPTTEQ
NOX1, sequence (Q86UR1 whole entry partner, one chain of several): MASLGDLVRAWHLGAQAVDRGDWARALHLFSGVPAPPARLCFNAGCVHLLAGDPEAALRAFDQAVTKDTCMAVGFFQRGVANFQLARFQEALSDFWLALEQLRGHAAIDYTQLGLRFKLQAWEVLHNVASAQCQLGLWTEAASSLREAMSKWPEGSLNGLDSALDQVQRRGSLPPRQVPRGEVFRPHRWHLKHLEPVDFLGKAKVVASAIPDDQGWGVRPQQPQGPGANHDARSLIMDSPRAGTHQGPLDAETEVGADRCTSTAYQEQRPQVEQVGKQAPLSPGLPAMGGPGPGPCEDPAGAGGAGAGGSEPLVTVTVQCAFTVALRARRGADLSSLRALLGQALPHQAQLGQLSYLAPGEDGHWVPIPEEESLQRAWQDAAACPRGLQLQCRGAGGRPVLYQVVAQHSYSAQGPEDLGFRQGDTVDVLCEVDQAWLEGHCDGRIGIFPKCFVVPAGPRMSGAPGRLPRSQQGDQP

IC50 (NOX4): 20.4 nM
IC50 (NOX1): 25.1 nM
Structure (SMILES): c1ccc2c(c1)Nc1nc3ccccc3nc1N2 [ML090, 5,12-Dihydroquinoxalino(2,3-B)quinoxaline]
